Experimental data published in patent US11185536B2, “Treatment of hearing loss by inhibition of casein kinase 1” (Massachusetts Eye & Ear Infirmary, priority 2015, dated 2021).
Entries after “also recorded” stand apart in the source; their conditions may differ.

Columns and labels:
[1] = tested on: Atoh1-Huwe1 binding; test: Co-immunoprecipitation of Atoh1-Huwe1 binding and Atoh1 ubiquitylation in HEK cells; format: cell-based; conditions: HEK cells co-transfected with HA-ubiquitin and FLAG-Atoh1, 4 hours treatment, co-IP
Experimental: HEK cells were co-transfected with HA-ubiquitin and FLAG-Atoh1 plasmids for 48 hours and treated with CK1 inhibitors (PF-670462 or D4476) and/or proteasome inhibitor MG132 (10 μM) for 4 hours. Immunoprecipitation was performed under denaturing conditions with anti-FLAG antibody. Endogenous Huwe1 was detected with an anti-Huwe1 antibody. Atoh1 was detected with anti-FLAG while ubiquitin was detected with anti-HA antibodies.
To explore the effect of CK1 on proteasomal degradation of Atoh1, we performed co-IP experiments.

[2] = tested on: Atoh1; test: Steady-state abundance of Atoh1 in human 293T cells; format: cell-based
[3] = tested on: organ of Corti explants; test: Sox2 lineage tracing of supporting cells in organ of Corti explants (hair cell generation); format: cell-based, mice; set-up: double-labeled cells positive for Sox2 lineage and myosin VIIa: dose or concentration left out as unconfirmed
Text: Hair cell co-labeling with the lineage tag indicates derivation from a Sox2-positive cell (labeled with asterisks) and is thus evidence for newly generated hair cells by transdifferentiation of supporting cells. OHCs, at the bottom of the image, are delineated by a light gray bracket while IHCs, at the top of the image, are delineated by a white bracket. The scale bar is 25 μm.
(B, C) Effect of CK1 inhibition was significant.
Since CK1 inhibition stabilized Atoh1, we assessed its effect on hair cell generation in the cochlea. A Sox2-positive Cre-reporter strain crossed with CAG-TdTomato (Bramhall et al., Stem cell reports 2, 311-322 (2014)) was used to label all supporting cells for lineage tracing to follow supporting cells after CK1 inhibition.

[4] = tested on: Aminoglycoside-exposed organ of Corti explants; test: Sox2 lineage tracing in aminoglycoside-exposed organ of Corti explants (hair cell regeneration); format: cell-based
Experimental: Images of the basal turn of the lineage-traced organ of Corti damaged by gentamycin and treated with CK1 inhibitor D4476 for 72 hours. […] The scale bar is 25 μm.
Aminoglycoside-exposed organ of Corti explants^3 were treated with 10 μM D4476 for 72 hours and lineage traced.

[5] = tested on: Atoh1-specific E-box activity; test: Dual luciferase reporter assay with Atoh1 E-box associated motif (AtEAM) in HEK cells; format: cell-based; conditions: HEK cells with or without Atoh1 overexpression, overnight, normalized to Renilla luciferase
Experimental: Dual luciferase assay using a firefly reporter construct with an AtEAM motif in HEK cells. Experiments were done in triplicate, and data are presented as the mean±SEM after normalization to Renilla luciferase
DMSO or CK1 inhibitor D4476 was added to HEK with or without overexpression of Atoh1 for overnight to block the degradation of Atoh1 and therefore downstream Atoh1-specific E-box activity.
To further assess potential roles of CK1 in the control of Atoh1 signaling, we performed dual luciferase reporter assays using a firefly reporter construct with an Atoh1 E-box associated motif (AtEAM) and a Renilla control reporter. AtEAM is a ten […] Atoh1-specific binding motif that represents the site for the activity of Atoh1 in numerous downstream genes (Klisch et al., Proc Natl Acad Sci USA. 2011 February 22; 108(8):3288-93). Inhibition of CK1 by D4476 increased and overexpression of CK1 (specifically CK1δ and/or CK1ε) reduced Atoh1 downstream signaling (FIG. 7A).

[6] = tested on: Atoh1; test: Atoh1 protein in newborn organ of Corti explants (Western blotting, densitometry); format: cell-based, mice; conditions: newborn mouse organ of Corti explants, 10 μM, 72 hours
Experimental: Effect of CK1 inhibition on Atoh1 upregulation in the organ of Corti. Newborn organs of Corti (P1) were treated with the CK1 inhibitor D4476 (10 uM) for 72 hours. Atoh1 were quantified after Western blotting by densitometry and normalized to a loading control (beta-actin).

[7] = organ of Corti explants, 10 μM, 72 hours, vs DMSO

Row | SMILES | Atoh1-Huwe1 binding [1] | ubiquitylation of Atoh1 [1] | steady-state abundance of Atoh1 [2] | double-labeled cells positive for Sox2 lineage and myosin VIIa ([3]; mid-base region of neonatal mouse cochlear tissue, 3 days after treatment) | number of reporter-labeled inner hair cells (IHCs) [3, 7] | number of reporter-labeled outer hair cells (OHCs) [3, 7] | hair cell generation in the organ of Corti ([3]; summary statement) | Sox2-lineage-tagged hair cells (co-labeled with myosin VIIa and TdTomato) after aminoglycoside damage ([4]; gentamycin-damaged explants, 10 μM, 72 hours) | hair cell regeneration after aminoglycoside damage ([4]; summary statement) | Atoh1 downstream signaling (Atoh1-specific E-box activity) [5] | Atoh1 protein in the cochlea based on densitometry [6]
1 | Cl.Cl.Nc1nccc(-c2c(-c3ccc(F)cc3)ncn2C2CCCCC2)n1 [PF-670462, 4-[3-Cyclohexyl-5-(4-fluoro-phenyl)−3H-imidazol-4-yl]-pyrimidin-2-ylamine dihydrochloride] | diminished Atoh1-Huwe1 binding | diminished | increased the steady-state abundance of Atoh1 | – | – | – | – | – | – | – | –
2 | NC(=O)c1ccc(-c2nc(-c3ccc4c(c3)OCCO4)c(-c3ccccn3)[nH]2)cc1 [D4476, 4-[4-(2,3-Dihydro-1,4-benzodioxin-6-yl)-5-(2-pyridinyl)-1H-imidazol-2-yl]benzamide] | diminished Atoh1-Huwe1 binding | diminished | increased the steady-state abundance of Atoh1 | found both in the inner hair cell and outer hair cell area | significantly increased; also recorded: significantly more | significantly increased; also recorded: significantly more | increase hair cell generation | resulted in an increase of Sox2-lineage-tagged hair cells; also recorded: indicated transdifferentiation of supporting cells | promote hair cell regeneration | increases Atoh1-specific E-box activity; also recorded: increased | caused stabilization of Atoh1 protein
3 | COc1cc(OC)c(C=C2C(=O)Nc3ccccc32)c(OC)c1 [IC-261, 1,3-Dihydro-3-[(2,4,6-trimethoxyphenyl)methylene]-2H-indol-2-one] | – | – | increased the steady-state abundance of Atoh1 | – | – | – | – | – | – | – | –
